Results reported in patent publication US20060046009A1, “Optical disk” (TDK Corporation, priority 2004, published 2006).

Assay: Solubility of the cyanine dyes in 2,2,3,3-tetrafluoro-1-propanol
Format: physicochemical
Conditions: in 2,2,3,3-tetrafluoro-1-propanol (TFP)
Excerpt: FIGS. 1 and 2 are schematic fragmentary sectional views showing the vicinities of grooves in the optical disks according to Example 1 (counter ion: PF6^−) and Comparative Example 2 (counter ion: I^−), respectively. […] Thus, the optical disk in Example 1 has more uniform dye

Solubility in TFP [mg/mL]	Compound
8	CN1/C(=C/C=C/C2=[N+](C)c3ccc4ccccc4c3C2(C)Cc2ccccc2)C(C)(C)c2c1ccc1ccccc21 (centres unmarked) [Example 2]
15	CN1/C(=C/C=C/C2=[N+](C)c3c(ccc4ccccc34)C2(C)C)C(C)(C)c2cc(Cl)ccc21 [Example 1]
